How the values were obtained:
Format in all cases: in vivo
Abutilon theophrasti [1] = assay: Pre-emergence herbicidal action against ABUTH; settings: visual score after 3 weeks vs untreated controls
Description: (§1) Seeds of monocotyledonous and dicotyledonous weed plants and crop plants are laid out in sandy loam soil in wood-fiber pots and covered with soil. The compounds of the invention, formulated in the form of wettable powders (WP) or as emulsion concentrates (EC), are then applied to the surface of the covering soil in the form of an aqueous suspension or emulsion at a water application rate equivalent to 600 to 800 l/ha, with addition of 0.2% wetting agent. After the treatment, the pots are placed in a greenhouse and kept under good growth conditions for the trial plants. The damage to the test plants is scored visually after a test period of 3 weeks by comparison with untreated controls (herbicidal activity in percent (%): 100% activity=the plants have died, 0% activity=like control plants). […] The tables below illustrate, in an illustrative manner, the post-emergence herbicidal action of the compounds of the invention, the herbicidal activity being stated in percent.

Echinochloa crus-galli [2] = assay: Pre-emergence herbicidal action against ECHCG; settings: 80 g/ha; visual score after 3 weeks vs untreated controls
Description: as §1

Setaria viridis [3] = assay: Pre-emergence herbicidal action against SETVI; settings: 80 g/ha
Description: as §1

Viola tricolor [4] = assay: Pre-emergence herbicidal action against VIOTR
Description: as §1

Pharbitis purpurea = assay: Post-emergence herbicidal action against PHBPU; settings: 20 g/ha, visual assessment about 3 weeks after treatment
Experimental: (§2) Seeds of monocotyledonous and dicotyledonous weed and crop plants are laid out in sandy loam soil in wood-fiber pots, covered with soil and cultivated in a greenhouse under good growth conditions. 2 to 3 weeks after sowing, the test plants are treated at the one-leaf stage. The compounds of the invention, formulated in the form of wettable powders (WP) or as emulsion concentrates (EC), are then sprayed onto the green parts of the plants in the form of an aqueous suspension or emulsion at a water application rate equivalent to 600 to 800 l/ha, with addition of 0.2% wetting agent. After the test plants have been left to stand in the greenhouse under optimal growth conditions for about 3 weeks, the action of the preparations is assessed visually in comparison to untreated controls (herbicidal action in percent (%): 100% activity=the plants have died, 0% activity=like control plants). […] The tables below illustrate, in an illustrative manner, the post-emergence herbicidal action of the compounds of the invention, the herbicidal activity being stated in percent.

Matricaria inodora [5] = assay: Pre-emergence herbicidal action against MATIN; settings: visual score after 3 weeks vs untreated controls
Description: as §1

Matricaria inodora [6] = assay: Post-emergence herbicidal action against MATIN; settings: 20 g/ha, visual assessment about 3 weeks after treatment
Experimental: as §2

Veronica persica [7] = assay: Pre-emergence herbicidal action against VERPE
Description: as §1

Echinochloa crus-galli [8] = assay: Post-emergence herbicidal action against ECHCG; settings: visual assessment about 3 weeks after treatment
Experimental: as §2

Amaranthus retroflexus [9] = assay: Pre-emergence herbicidal action against AMARE; settings: visual score after 3 weeks vs untreated controls
Description: as §1

Digitaria sanguinalis = assay: Pre-emergence herbicidal action against DIGSA
Description: as §1

Amaranthus retroflexus [10] = assay: Post-emergence herbicidal action against AMARE; settings: visual assessment about 3 weeks after treatment
Experimental: as §2

Alopecurus myosuroides [11] = assay: Pre-emergence herbicidal action against ALOMY; settings: visual score after 3 weeks vs untreated controls
Description: as §1

Abutilon theophrasti [12] = assay: Post-emergence herbicidal action against ABUTH
Experimental: as §2

Viola tricolor [13] = assay: Post-emergence herbicidal action against VIOTR
Experimental: as §2

Avena fatua = assay: Post-emergence herbicidal action against AVEFA; settings: 20 g/ha, visual assessment about 3 weeks after treatment
Experimental: as §2

Alopecurus myosuroides [14] = assay: Post-emergence herbicidal action against ALOMY; settings: 20 g/ha
Experimental: as §2

Setaria viridis [15] = assay: Post-emergence herbicidal action against SETVI; settings: 20 g/ha, visual assessment about 3 weeks after treatment
Experimental: as §2

Polygonum convolvulus = assay: Pre-emergence herbicidal action against POLCO; settings: 80 g/ha
Description: as §1

Veronica persica [16] = assay: Post-emergence herbicidal action against VERPE; settings: 20 g/ha, visual assessment about 3 weeks after treatment
Experimental: as §2

| Structure (SMILES) | Pre-emergence action against ABUTH (Abutilon theophrasti [1]; 20 g/ha) | Pre-emergence action against ABUTH (Abutilon theophrasti [1]; 80 g/ha) | Pre-emergence action against ECHCG (Echinochloa crus-galli [2]) | Pre-emergence action against SETVI (Setaria viridis [3]) | Pre-emergence action against VIOTR (Viola tricolor [4]; 20 g/ha) | Pre-emergence action against VIOTR (Viola tricolor [4]; 80 g/ha) | Post-emergence action against PHBPU in % (Pharbitis purpurea) | Pre-emergence action against MATIN (Matricaria inodora [5]; 20 g/ha) | Pre-emergence action against MATIN (Matricaria inodora [5]; 80 g/ha) | Post-emergence action against MATIN in % (Matricaria inodora [6]) | Pre-emergence action against VERPE (Veronica persica [7]; 80 g/ha) | Post-emergence action against ECHCG in % (Echinochloa crus-galli [8]; 20 g/ha) | Pre-emergence action against AMARE (Amaranthus retroflexus [9]; 20 g/ha) | Pre-emergence action against AMARE (Amaranthus retroflexus [9]; 80 g/ha) | Pre-emergence action against DIGSA (Digitaria sanguinalis; 20 g/ha) | Pre-emergence action against DIGSA (Digitaria sanguinalis; 80 g/ha) | Post-emergence action against AMARE in % (Amaranthus retroflexus [10]; 20 g/ha) | Pre-emergence action against ALOMY (Alopecurus myosuroides [11]; 80 g/ha) | Post-emergence action against ABUTH (Abutilon theophrasti [12]; 5 g/ha) | Post-emergence action against ABUTH (Abutilon theophrasti [12]; 20 g/ha) | also measured |
| --- | --- | --- | --- | --- | --- | --- | --- | --- | --- | --- | --- | --- | --- | --- | --- | --- | --- | --- | --- | --- | --- |
| CCOC(=O)[C@@H]1CCCN1C(=O)c1c(C(F)(F)F)ccc(C(=O)Nc2nnnn2CC)c1C [Example 2-399] | 100% | 100% | 90% | 100% | 90% | 100% | 90% | 90% | 100% | 80% | 100% | 80% | 90% | 100% | 90% | 100% | 80% |  |  |  | Pre-emergence action against VERPE (Veronica persica [7]; 20 g/ha): 100% |
| CCN(C(=O)c1c(C(F)(F)F)ccc(C(=O)Nc2nnnn2CC)c1Cl)C1CC1 [Example 2-136] | 100% | 100% | 90% | 100% | 100% | 100% |  | 80% | 100% | 80% |  | 90% | 100% | 100% | 90% | 100% | 100% | 100% | 80% | 90% | Pre-emergence action against ALOMY (Alopecurus myosuroides [11]; 20 g/ha): 90%; Post-emergence action against VIOTR in % (Viola tricolor [13]; 5 g/ha): 100%; Post-emergence action against VIOTR in % (Viola tricolor [13]; 20 g/ha): 100%; Post-emergence action against AVEFA in % (Avena fatua): 80%; Post-emergence action against ALOMY (Alopecurus myosuroides [14]): 90%; Post-emergence action against AMARE in % (Amaranthus retroflexus [10]; 5 g/ha): 100% |
| CCOC(=O)[C@@H]1CCCN1C(=O)c1c(C(F)(F)F)ccc(C(=O)Nc2nnnn2C)c1C [Example 1-401] | 100% | 100% |  | 100% |  |  | 80% |  | 90% | 90% |  |  | 100% | 100% | 90% | 100% |  |  |  |  |  |
| CCn1nnnc1NC(=O)c1ccc(C(F)F)c(C(=O)N(C)C)c1C [Example 2-50] |  | 100% | 80% |  |  |  |  | 90% | 90% |  | 80% | 90% | 90% | 100% |  |  | 100% | 90% | 90% | 90% | Post-emergence action against SETVI in % (Setaria viridis [15]): 80%; Pre-emergence action against POLCO (Polygonum convolvulus): 90%; Post-emergence action against VIOTR in % (Viola tricolor [13]; 20 g/ha): 90%; Post-emergence action against ALOMY (Alopecurus myosuroides [14]): 80%; Post-emergence action against ECHCG in % (Echinochloa crus-galli [8]; 5 g/ha): 80%; Post-emergence action against VERPE in % (Veronica persica [16]): 90%; Post-emergence action against AMARE in % (Amaranthus retroflexus [10]; 5 g/ha): 100% |
